This is an account of results in US20190134039A1, “ANTIVIRAL JAK INHIBITORS USEFUL IN TREATING OR PREVENTING RETROVIRAL AND OTHER VIRAL INFECTIONS” (EMORY UNIVERSITY, priority 2011, published 2019).

Structures can show the parent of a compound that is named as a salt. Where two headings read alike, the source gives them in different places.

A word on the EC50: it is the concentration that produces a half-maximal response. Broadly, the EC90 is the concentration needed for an effect of 90%.

What all share (format): cell-based
For assay [1], the system named is HIV-1 containing M184V. The assay can be described thus: microbe, parasite or virus in culture. The note with it: for EC50 / EC90: Human immunodeficiency virus 1, Lymphocyte; for FI50 (ratio of EC50 against mutant virus:EC50 against wild-type xxLAI) / FI90 (ratio of EC90 against mutant virus:EC90 against wild-type xxLAI): M184V.
The subject of assay [2] is HIV-1 containing L74V. The assay is described as follows: microbe, parasite or virus in culture. The note with it: for EC90 / EC50: Human immunodeficiency virus 1, Lymphocyte; for FI50 (ratio of EC50 against mutant virus:EC50 against wild-type xxLAI) / FI90 (ratio of EC90 against mutant virus:EC90 against wild-type xxLAI): L74V.
Assay [3] relates to HIV-1 containing A62V/V75I/F77L/F116Y/Q151M. The assay can be described thus: microbe, parasite or virus in culture. Conditions: for FI50 (ratio of EC50 against mutant virus:EC50 against wild-type xxLAI) / FI90 (ratio of EC90 against mutant virus:EC90 against wild-type xxLAI): A62V/V75I/F77L/F116Y/Q151M; for EC50 / EC90: Human immunodeficiency virus 1, Lymphocyte.
Assay [4] relates to HIV-1 containing K65R. The assay can be described thus: microbe, parasite or virus in culture. Conditions: for EC50 / EC90: Human immunodeficiency virus 1, Lymphocyte; for FI50 (ratio of EC50 against mutant virus:EC50 against wild-type xxLAI) / FI90 (ratio of EC90 against mutant virus:EC90 against wild-type xxLAI): K65R.
For assay [5], the system named is wild-type HIV-1xxLAI. The assay is described as follows: Antiviral potency in primary human lymphocytes, wild type. The note with it: Human immunodeficiency virus 1, Lymphocyte.
Assay [6] relates to HIV-1 containing 4xAZT (D67N/K70R/T215Y/K219Q). The assay can be described thus: microbe, parasite or virus in culture. Conditions: for FI50 (ratio of EC50 against mutant virus:EC50 against wild-type xxLAI) / FI90 (ratio of EC90 against mutant virus:EC90 against wild-type xxLAI): 4xAZT (D67N/K70R/T215Y/K219Q); for EC50 / EC90: Human immunodeficiency virus 1, Lymphocyte.
The test system of assay [7] is various NRTI-resistant HIV-1. The assay can be described thus: Antiviral potency against various NRTI-resistant HIV-1 in primary human lymphocytes (summary over strains). The note with it: K65R, M184V, L74V, A62V/V75I/F77L/F116Y/Q151M, 4xAZT. The text has this:
FI50 is the ratio of EC50 against mutant virus:EC50 against wild-type xxLAI. FI90 is the ratio of EC90 against mutant virus:EC90 against wild-type xxLAI.

Where [8] appears, read: xxLAI, primary human lymphocytes, read-out: EC50.
The mark [9] stands for this setting: xxLAI, primary human lymphocytes, read-out: EC90.

Take `CC(C)OC(=O)OCOP(=O)(CO[C@H](C)Cn1cnc2c(N)ncnc21)OCOC(=O)OC(C)C` [TDF, Tenofovir disoproxil fumarate]: the EC50 in assay [1] turned out to be 90 ± 30 nM; in assay [3] it was 700 ± 800 nM; in assay [4], 400 ± 100 nM; in assay [5] (setting [8]), 200 ± 200 nM; in assay [6], 70 ± 40 nM. Moreover, the EC90 came out at 500 ± 300 nM in assay [1]; 200 ± 100 nM in assay [2]; 3600 ± 2200 nM in assay [3]; 1600 ± 500 nM in assay [4]; 900 ± 800 nM in assay [5] (setting [9]); 1200 ± 1100 nM in assay [6]. For the same compound, the “FI50 (ratio of EC50 against mutant virus:EC50 against wild-type xxLAI)” value in assay [1] was 0.6; in assay [2] it was 1.4; in assay [3], 3.9; in assay [4], 2.2; in assay [6], 1.3. Also, the “FI90 (ratio of EC90 against mutant virus:EC90 against wild-type xxLAI)” value in assay [1] is reported as 0.6; in assay [2] it was 1.2; in assay [3], 3.9; in assay [4], 1.7; in assay [6] it was 1.3.

For the compound `Nc1ccn([C@@H]2CS[C@H](CO)O2)c(=O)n1` [Compound 3TC, (−)-cis-2-hydroxymethyl-5-(cytosin-1-yl)-1,3-oxathiolane], the EC50 in assay [1] is over 10000 nM; in assay [2] it was 600 ± 800 nM; in assay [3], 500 ± 700 nM; in assay [4] it was 2500 ± 3000 nM; in assay [5] (setting [8]), 800 ± 400 nM; in assay [6], 700 ± 800 nM. Besides, the EC90 is over 10000 nM in assay [1]; 2900 ± 2900 nM in assay [2]; 2700 ± 1700 nM in assay [3]; 6000 ± 5300 nM in assay [4]; 3100 ± 1200 nM in assay [5] (setting [9]); 3400 ± 1100 nM in assay [6]. Besides, the “FI50 (ratio of EC50 against mutant virus:EC50 against wild-type xxLAI)” value is recorded as 13.3 in assay [1]; 0.7 in assay [2]; 0.6 in assay [3]; 3.3 in assay [4]; 0.9 in assay [6]. Also, the “FI90 (ratio of EC90 against mutant virus:EC90 against wild-type xxLAI)” value in assay [1] was determined as 3.2; in assay [2], 0.9; in assay [3] it was 0.9; in assay [4], 1.9; in assay [6], 1.1.

With `Nc1nc(=O)n([C@@H]2CS[C@H](CO)O2)cc1F` (relative stereo) [(−)FTC, cis-2-hydroxymethyl-5-(5-fluorocytosin-1-yl)-1,3-oxathiolane], the EC50 in assay [1] was determined as 10100 ± 7300 nM; in assay [2], 200 ± 200 nM; in assay [3] it was 400 ± 300 nM; in assay [4], 500 ± 400 nM; in assay [5] (setting [8]), 90 ± 20 nM; in assay [6], 200 ± 100 nM. For the same compound, the EC90 was found to be 41300 ± 29300 nM in assay [1]; 1300 ± 1000 nM in assay [2]; 2100 ± 1600 nM in assay [3]; 2400 ± 1400 nM in assay [4]; 800 ± 400 nM in assay [5] (setting [9]); 1200 ± 100 nM in assay [6]. Moreover, the “FI50 (ratio of EC50 against mutant virus:EC50 against wild-type xxLAI)” value in assay [1] is on record as 117; in assay [2], 2; in assay [3], 4.2; in assay [4], 5.5; in assay [6], 2. The “FI90 (ratio of EC90 against mutant virus:EC90 against wild-type xxLAI)” value in assay [1] came to 50; in assay [2] it was 1.6; in assay [3] it was 2.5; in assay [4], 2.9; in assay [6] it was 1.4.

As for `O=C1Nc2ccc(Cl)cc2[C@@](C#CC2CC2)(C(F)(F)F)O1` [EFV, efavirenz], in assay [7], the “antiviral potency for wild-type HIV-1xxLAI versus NRTI-resistant HIV-1” value is listed as “similarly potent across all NRTI resistant strains”. The EC50 in assay [1] turned out to be 10 ± 6 nM; in assay [2], 60 ± 70 nM; in assay [3], 200 ± 300 nM; in assay [4], 7 nM; in assay [5] (setting [8]), 20 ± 30 nM; in assay [6], 70 ± 40 nM. The EC90 was found to be 80 ± 80 nM in assay [1], 440 ± 600 nM in assay [3], 20 ± 10 nM in assay [4] and 200 ± 300 nM in assay [5] (setting [9]). Also, the “FI50 (ratio of EC50 against mutant virus:EC50 against wild-type xxLAI)” value is recorded as 0.5 in assay [1]; 2.6 in assay [2]; 7.7 in assay [3]; 0.3 in assay [4]; 3.1 in assay [6]. Further, the “FI90 (ratio of EC90 against mutant virus:EC90 against wild-type xxLAI)” value is 0.4 in assay [1]; 1.1 in assay [2]; 2 in assay [3]; 0.1 in assay [4]; 1 in assay [6].

For the compound `OC[C@@H]1CC[C@H](n2cnc3c(O)ncnc32)O1` [ddI, 2′,3′-dideoxyinosine], the EC50 in assay [1] was determined as 11500 ± 9100 nM; in assay [2], 13200 ± 8500 nM; in assay [3], 40500 ± 52100 nM; in assay [4], 21200 ± 18300 nM; in assay [5] (setting [8]) it was 11500 ± 6600 nM; in assay [6], 35500 ± 31000 nM. Further, the EC90 in assay [1] was found to be 44900 ± 26200 nM; in assay [2] it was 80900 ± 16600 nM; in assay [3] it was 83500 ± 28600 nM; in assay [4], 86700 ± 800 nM; in assay [5] (setting [9]), 55400 ± 23000 nM; in assay [6] it was 77100 ± 32400 nM. Further, the “FI50 (ratio of EC50 against mutant virus:EC50 against wild-type xxLAI)” value is listed as 1 in assay [1]; 1.1 in assay [2]; 3.5 in assay [3]; 1.8 in assay [4]; 3.1 in assay [6]. The “FI90 (ratio of EC90 against mutant virus:EC90 against wild-type xxLAI)” value in assay [1] stood at 0.8; in assay [2], 1.1; in assay [3], 1.5; in assay [4], 1.6; in assay [6], 1.4.

As to `Cc1cn([C@H]2C=C[C@@H](CO)O2)c(=O)[nH]c1=O` [Compound D4T, 2′,3′-dideoxy-2′,3′-didehydrothymidine], the EC50 was 600 ± 800 nM in assay [1]; 900 ± 800 nM in assay [2]; 6800 ± 5700 nM in assay [3]; 1500 ± 600 nM in assay [4]; 1000 ± 500 nM in assay [5]; 27800 ± 37100 nM in assay [6]. Further, the EC90 in assay [1] is 2600 ± 2500 nM; in assay [2], 9800 ± 2400 nM; in assay [3], 70300 ± 51400 nM; in assay [4], 7900 ± 300 nM; in assay [5], 6400 ± 400 nM; in assay [6], 53200 ± 66300 nM. In addition, the “FI50 (ratio of EC50 against mutant virus:EC50 against wild-type xxLAI)” value in assay [1] came to 0.6; in assay [2], 0.9; in assay [3], 6.9; in assay [4] it was 1.5. In addition, the “FI90 (ratio of EC90 against mutant virus:EC90 against wild-type xxLAI)” value was 0.4 in assay [1]; 1.5 in assay [2]; 11 in assay [3]; 1.2 in assay [4]; 8.3 in assay [6].
